ChEMBL document CHEMBL4837216, “Polymyxin B-inspired non-hemolytic tyrocidine A analogues with significantly enhanced activity against gram-negative bacteria: How cationicity impacts cell specificity and antibacterial mechanism” (Eur J Med Chem, 2021)
Values after ≈ are worked out from the molar mass of the structure shown. Active and inactive are the calls of the source. No cut-off for these calls is given here. Where a SMILES comes first, the peptide text is derived from it. Bridges are numbered along the chain shown (N, C = ends). [ ]: non-standard residue; d: D form. The star is where a group is joined. X1 = CC[C@H](C)CCCCC(=O)*; Orn = NCCC[C@H](N)C(=O)O; Dab = NCC[C@H](N)C(=O)O

Experiments:
Escherichia coli [1] = experiment: Antibacterial activity against Escherichia coli ATCC 8739 assessed as inhibition of bacterial growth measured after 24 hrs by turbidity based analysis; format: functional
Pseudomonas aeruginosa = experiment: Antibacterial activity against Pseudomonas aeruginosa ATCC 27853 assessed as inhibition of bacterial growth measured after 24 hrs by turbidity based analysis; format: functional
Acinetobacter baumannii = experiment: Antibacterial activity against Acinetobacter baumannii ATCC 19606 assessed as inhibition of bacterial growth measured after 24 hrs by turbidity based analysis; format: functional; conditions: ATCC 19606 = CIP 70.34 = JCM 6841
Staphylococcus aureus [2] = experiment: Antibacterial activity against Staphylococcus aureus ATCC 6538 assessed as inhibition of bacterial growth measured after 24 hrs by turbidity based analysis; format: functional
Enterococcus faecalis = experiment: Antibacterial activity against Enterococcus faecalis ATCC 29212 assessed as inhibition of bacterial growth measured after 24 hrs by turbidity based analysis; format: functional
Staphylococcus aureus [3] = experiment: Antibacterial activity against methicillin resistant Staphylococcus aureus assessed as inhibition of bacterial growth measured after 24 hrs by turbidity based analysis; format: functional
[4] = Hemolytic activity in human RBC assessed as induction of cell lysis measured after 30 mins by microtiter plate method; format: cell-based, Erythrocyte; conditions: human red blood cells (erythrocytes)
Lipopolysaccharide (LPS) = experiment: Displacement of dansyl-polymyxinB from LPS (unknown origin) assessed as decrease in fluorescence intensity by fluorescence spectrophotometric analysis
Cell membrane [5] = experiment: Induction of outer membrane permeabilization to NPN in Escherichia coli ATCC 8739 cells assessed as increase in fluorescence intensity by NPN-probe based fluorescence spectrophotometric analysis; format: subcellular
Cell membrane [6] = experiment: Induction of cytoplasmic membrane depolarization in Escherichia coli assessed as increase in fluorescence intensity a 1XMIC by DiSC3-5 dye based fluorescence method
Cell membrane [7] = experiment: Induction of cytoplasmic membrane depolarization in Staphylococcus aureus assessed as increase in fluorescence intensity a 1XMIC by DiSC3-5 dye based fluorescence method
L02 = experiment: Cytotoxicity against human L02 cells assessed as reduction in cell viability at 5 uM incubated for 24 hrs by CCK8 assay; format: cell-based; conditions: l02, 24 h
Cell membrane [8] = experiment: Induction of cytoplasmic membrane permeabilization in Escherichia coli at 0.5 times MIC measured for 10 mins by propidium iodide dye based fluorescence assay; format: subcellular
Cell membrane [9] = experiment: Induction of cytoplasmic membrane permeabilization in Escherichia coli at 1 times MIC measured for 10 mins by propidium iodide dye based fluorescence assay; format: subcellular
Cell membrane [10] = experiment: Induction of cytoplasmic membrane permeabilization in Staphylococcus aureus at 0.5 times MIC measured for 10 mins by propidium iodide dye based fluorescence assay; format: subcellular
Cell membrane [11] = experiment: Induction of cytoplasmic membrane permeabilization in Staphylococcus aureus at 1 times MIC measured for 10 mins by propidium iodide dye based fluorescence assay
Lipid bilayer [12] = experiment: Binding affinity to bacterial inner membrane mimic DOPE/DOPG (3:1) large unilamellar vesicles assessed as calcein leakage measured after 30 mins fluorescence based assay
Escherichia coli [13] = experiment: Bactericidal activity against Escherichia coli assessed as decrease in cell survival at 0.5XMIC measured after 24 hrs by colony counting assay; format: functional, organism-based
Staphylococcus aureus [14] = experiment: Bactericidal activity against Staphylococcus aureus assessed as decrease in cell survival at 0.5XMIC measured after 24 hrs by colony counting assay; format: functional, organism-based
Lipid bilayer [15] = experiment: Binding affinity to eukaryotic cell membrane mimic DOPC/Cholesterol (3:1) large unilamellar vesicles assessed as calcein leakage measured after 30 mins fluorescence based assay
Staphylococcus aureus [16] = experiment: Antibacterial activity against Staphylococcus aureus ATCC 6538 assessed as inhibition of bacterial growth measured after 17 passages by turbidity based analysis; format: functional, organism-based
Escherichia coli [17] = experiment: Antibacterial activity against Escherichia coli ATCC 8739 assessed as inhibition of bacterial growth measured after 17 passages by turbidity based analysis; format: functional, organism-based

| Compound | MIC (Escherichia coli [1]) [µM] | MIC (Pseudomonas aeruginosa) [µM] | MIC (Acinetobacter baumannii) [µM] | MIC (Staphylococcus aureus [2]) [µM] | MIC (Enterococcus faecalis) [µM] | MIC (Staphylococcus aureus [3]) [µM] | HC50 at 0.5 h [4] [µM] | Activity (Lipopolysaccharide (LPS)) | Activity (Cell membrane [5]) | Activity (Cell membrane [6]) | Activity (Cell membrane [7]) | other results |
| --- | --- | --- | --- | --- | --- | --- | --- | --- | --- | --- | --- | --- |
| CC(C)C[C@@H]1NC(=O)[C@H](CCCN)NC(=O)[C@H](C(C)C)NC(=O)[C@H](Cc2ccc(O)cc2)NC(=O)[C@H](CCCN)NC(=O)[C@H](CC(N)=O)NC(=O)[C@@H](Cc2ccccc2)NC(=O)[C@H](Cc2ccccc2)NC(=O)[C@@H]2CCCN2C(=O)[C@@H](Cc2ccccc2)NC1=O (cyclo(F[dF]N[Orn]YV[Orn]L[dF]P)) | 5 (≈ 6.28 µg/mL) | 40 (≈ 50.3 µg/mL) | 5 (≈ 6.28 µg/mL) | 2.5 (≈ 3.14 µg/mL) | 1.25 (≈ 1.57 µg/mL) | 5 (≈ 6.28 µg/mL) | 10 |  |  |  |  |  |
| NCCC[C@@H]1NC(=O)[C@H](CCCN)NC(=O)[C@H](CCCN)NC(=O)[C@H](CCCN)NC(=O)[C@@H](Cc2ccccc2)NC(=O)[C@H](Cc2ccccc2)NC(=O)[C@@H]2CCCN2C(=O)[C@@H](Cc2ccccc2)NC(=O)[C@H](CCCN)NC(=O)[C@H](CCCN)NC1=O | 40 (≈ 48.9 µg/mL) | 80 (≈ 97.9 µg/mL) | 80 (≈ 97.9 µg/mL) | 20 (≈ 24.5 µg/mL) | 10 (≈ 12.2 µg/mL) | 40 (≈ 48.9 µg/mL) | > 400 | Active | Active | inactive | inactive |  |
| CC(C)C[C@@H]1NC(=O)[C@H](CCCN)NC(=O)[C@H](C(C)C)NC(=O)[C@H](CCCN)NC(=O)[C@H](CCC(N)=O)NC(=O)[C@H](CCCN)NC(=O)[C@@H](Cc2ccccc2)NC(=O)[C@H](Cc2ccccc2)NC(=O)[C@@H]2CCCN2C(=O)[C@@H](Cc2ccccc2)NC1=O | 5 (≈ 6.11 µg/mL) | 40 (≈ 48.9 µg/mL) | 10 (≈ 12.2 µg/mL) | 5 (≈ 6.11 µg/mL) | 5 (≈ 6.11 µg/mL) | 10 (≈ 12.2 µg/mL) | 282 |  | Active | Active | Active |  |
| CC(C)C[C@@H]1NC(=O)[C@H](CCCN)NC(=O)[C@H](C(C)C)NC(=O)[C@H](CCCN)NC(=O)[C@H](CCCN)NC(=O)[C@H](CC(N)=O)NC(=O)[C@@H](Cc2ccccc2)NC(=O)[C@H](Cc2ccccc2)NC(=O)[C@@H]2CCCN2C(=O)[C@@H](Cc2ccccc2)NC1=O | 10 (≈ 12.1 µg/mL) | 20 (≈ 24.1 µg/mL) | 10 (≈ 12.1 µg/mL) | 10 (≈ 12.1 µg/mL) | 2.5 (≈ 3.02 µg/mL) | 10 (≈ 12.1 µg/mL) | 70 |  |  |  |  |  |
| CC(C)C[C@@H]1NC(=O)[C@H](CCCN)NC(=O)[C@H](C(C)C)NC(=O)[C@H](Cc2ccc(O)cc2)NC(=O)[C@H](CCC(N)=O)NC(=O)[C@H](CC(N)=O)NC(=O)[C@@H](Cc2ccccc2)NC(=O)[C@H](Cc2ccccc2)NC(=O)[C@@H]2CCCN2C(=O)[C@@H](Cc2ccccc2)NC1=O [TYROCIDINE A] (cyclo(F[dF]NQYV[Orn]L[dF]P)) | 20 (≈ 25.4 µg/mL) | 80 (≈ 102 µg/mL) | 10 (≈ 12.7 µg/mL) | 2.5 (≈ 3.18 µg/mL) | 2.5 (≈ 3.18 µg/mL) | 20 (≈ 25.4 µg/mL) | 14 | Active | Active | Active | Active | Activity (L02): Toxic; Activity (Cell membrane [8]): Active; Activity (Cell membrane [9]): Active; Activity (Cell membrane [10]): Active; Activity (Cell membrane [11]): Active; Activity (Lipid bilayer [12]): Active; Activity (Escherichia coli [13]): inactive; Activity (Staphylococcus aureus [14]): inactive; Activity (Lipid bilayer [15]): Active |
| O=C(O)c1cn(C2CC2)c2cc(N3CCNCC3)c(F)cc2c1=O |  |  |  |  |  |  |  |  |  |  |  | Activity (Staphylococcus aureus [16]): inactive; Activity (Escherichia coli [17]): inactive |
| CC(C)C[C@@H]1NC(=O)[C@H](CCCN)NC(=O)[C@H](C(C)C)NC(=O)[C@H](Cc2ccc(O)cc2)NC(=O)[C@H](CCCN)NC(=O)[C@H](CCCN)NC(=O)[C@@H](Cc2ccccc2)NC(=O)C(Cc2ccccc2)NC(=O)[C@@H]2CCCN2C(=O)[C@@H](Cc2ccccc2)NC1=O (single isomer, unassigned) | 5 (≈ 6.28 µg/mL) | 40 (≈ 50.3 µg/mL) | 5 (≈ 6.28 µg/mL) | 5 (≈ 6.28 µg/mL) | 2.5 (≈ 3.14 µg/mL) | 5 (≈ 6.28 µg/mL) | 24 |  |  |  |  |  |
| CC(C)C[C@@H]1NC(=O)[C@H](CCCN)NC(=O)[C@H](C(C)C)NC(=O)[C@H](CCCN)NC(=O)[C@H](CCCN)NC(=O)[C@H](CCCN)NC(=O)[C@@H](Cc2ccccc2)NC(=O)[C@H](Cc2ccccc2)NC(=O)[C@@H]2CCCN2C(=O)[C@@H](Cc2ccccc2)NC1=O | 5 (≈ 6.04 µg/mL) | 20 (≈ 24.2 µg/mL) | 10 (≈ 12.1 µg/mL) | 5 (≈ 6.04 µg/mL) | 5 (≈ 6.04 µg/mL) | 10 (≈ 12.1 µg/mL) | 196 | Active | Active | Active | Active |  |
| CC(C)[C@@H]1NC(=O)[C@H](CCCN)NC(=O)[C@H](CCCN)NC(=O)[C@H](CCCN)NC(=O)[C@@H](Cc2ccccc2)NC(=O)[C@H](Cc2ccccc2)NC(=O)[C@@H]2CCCN2C(=O)[C@@H](Cc2ccccc2)NC(=O)[C@H](CCCN)NC(=O)[C@H](CCCN)NC1=O | 80 (≈ 96.7 µg/mL) | 80 (≈ 96.7 µg/mL) | 80 (≈ 96.7 µg/mL) | 40 (≈ 48.3 µg/mL) | 10 (≈ 12.1 µg/mL) | 10 (≈ 12.1 µg/mL) | > 400 | Active |  |  |  |  |
| CC(C)C[C@@H]1NC(=O)[C@H](CCCN)NC(=O)[C@H](C(C)C)NC(=O)[C@H](CCCN)NC(=O)[C@H](CCC(N)=O)NC(=O)[C@H](CC(N)=O)NC(=O)[C@@H](Cc2ccccc2)NC(=O)[C@H](Cc2ccccc2)NC(=O)[C@@H]2CCCN2C(=O)[C@@H](Cc2ccccc2)NC1=O | 40 (≈ 48.9 µg/mL) | 80 (≈ 97.7 µg/mL) | 10 (≈ 12.2 µg/mL) | 10 (≈ 12.2 µg/mL) | 5 (≈ 6.11 µg/mL) | 10 (≈ 12.2 µg/mL) | 43 |  |  |  |  |  |
| CC[C@H](C)CCCCC(=O)N[C@@H](CCN)C(=O)N[C@H](C(=O)N[C@@H](CCN)C(=O)N[C@H]1CCNC(=O)[C@H]([C@@H](C)O)NC(=O)[C@H](CCN)NC(=O)[C@H](CCN)NC(=O)[C@H](CC(C)C)NC(=O)[C@@H](Cc2ccccc2)NC(=O)[C@H](CCN)NC1=O)[C@@H](C)O (X1-[Dab]T[Dab][Dab][Dab][dF]L[Dab][Dab]T; lactam 4-C) |  |  |  |  |  |  |  | Active |  |  |  |  |
| CC(C)C[C@@H]1NC(=O)[C@H](CCCN)NC(=O)[C@H](C(C)C)NC(=O)[C@H](Cc2ccc(O)cc2)NC(=O)[C@H](CCC(N)=O)NC(=O)[C@H](CCCN)NC(=O)[C@@H](Cc2ccccc2)NC(=O)[C@H](Cc2ccccc2)NC(=O)[C@@H]2CCCN2C(=O)[C@@H](Cc2ccccc2)NC1=O | 20 (≈ 25.4 µg/mL) | 80 (≈ 102 µg/mL) | 5 (≈ 6.35 µg/mL) | 5 (≈ 6.35 µg/mL) | 2.5 (≈ 3.18 µg/mL) | 20 (≈ 25.4 µg/mL) | 20 |  | Active |  |  |  |
